Data from patent US7488716B2 (priority 2001, dated 2009).
pIC50: −log10 of the molar value. Where no end group is shown, it is not given here. PEG 22kD = 22 kDa polyethylene glycol (on cysteine)

Key:
GLP-1 receptor [1] = biological target: T1, GLP-1 receptor (Rattus norvegicus, UniProt P32301); experiment: Peptide signaling through GLP-1 receptor, cAMP scintillation proximity assay in RINm5F cells; assay type: cell-based; conditions: for GLP1 Relative Potency: EC50 of native GLP-1 (7-36) divided by EC50 of polypeptide x 100, cAMP in RINm5F cells; for Emax: RIN-m5F, read-out: % GLP1 max
T1 construct: endogenous in cells; host or cells: RINm5F cells
T1 sequence (P32301 22-463): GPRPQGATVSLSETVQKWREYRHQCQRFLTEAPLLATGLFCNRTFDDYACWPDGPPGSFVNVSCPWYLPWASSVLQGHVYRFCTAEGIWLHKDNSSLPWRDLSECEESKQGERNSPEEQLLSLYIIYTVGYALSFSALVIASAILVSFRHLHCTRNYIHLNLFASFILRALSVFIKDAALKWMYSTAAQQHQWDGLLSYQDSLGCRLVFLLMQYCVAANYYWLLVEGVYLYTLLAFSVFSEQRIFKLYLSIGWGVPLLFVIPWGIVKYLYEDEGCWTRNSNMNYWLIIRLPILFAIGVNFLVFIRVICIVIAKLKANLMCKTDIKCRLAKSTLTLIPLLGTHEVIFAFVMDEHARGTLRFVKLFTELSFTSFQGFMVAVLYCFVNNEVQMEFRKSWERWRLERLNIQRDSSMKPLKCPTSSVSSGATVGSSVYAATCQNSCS
Experimental: The media was removed and the cells were washed twice with PBS. […] For assay of peptides conjugated with fatty acid, the BSA was omitted from the incubation buffer. The incubation buffer was removed, and the cells were lysed in the lysis reagent provided with the cAMP Scintillation Proximity Assay (SPA) direct screening assay system (Amersham Pharmacia Biotech Inc, Piscataway, N.J.). The amount of cAMP (in pmol) present in the lysates was determined following instructions provided with this kit.
The amount of cAMP (in pmol) produced at each concentration of peptide was plotted and analyzed by nonlinear regression using Prizm software to determine the EC50 for each peptide.

[2] = Intraperitoneal glucose tolerance testing (IPGTT) in rats or mice; assay type: in vivo; conditions: ipGTT in mice 3 hours post dosing with 100 μg/kg peptide
Experimental: Blood glucose levels during intraperitoneal glucose tolerance testing in rats or mice by some polypeptides of the invention were measured as follows. The in vivo activity of the polypeptides of the invention when administered subcutaneously was examined in rats or mice. Rats or mice fasted overnight were given a subcutaneous injection of control or peptide (100 μg/kg). Basal blood glucose was measured prior to administration of peptides or three or 17 hours after administration of derivatized peptides, and the rats or mice were given 2 g/kg of glucose intraperitoneally. Blood glucose was measured again after 15, 30 and 60 minutes in rats or 30 and 60 minutes in mice.

GLP-1 receptor [3] = biological target: T1, GLP-1 receptor; experiment: Competitive binding of peptide to the GLP-1 receptor in RINm5F cell plasma membranes (125I GLP-1); conditions: read-out: GLP1 RIN IC50
Experimental: Flasks of RINm5F cells were washed with PBS, scraped in 20 mM Hepes-1 mM EDTA-250 mM sucrose buffer containing protease inhibitors (HES) and homogenized in a dounce homogenizer followed by repeated resuspension through a 23 gauge needle. Unbroken cells and nuclei were removed by centrifugation at 500×g for 5 minutes. The pellet was resuspended in HES buffer using a 23 gauge needle and the centrifugation was repeated. The supernatants from the two spins were combined and centrifuged at 40,000×g for 20 min. The resulting plasma membrane pellet was resuspended in HES buffer using a 23 gauge needle followed by a 25 gauge needle. Membranes were stored at −80° C. until use.
(§1) Competitive binding of some polypeptides of the invention to RINm5F cell plasma membranes was measured as follows. Ninety-six-well GF/C filtration plates (Millipore, Bedford, Mass.) were blocked with 0.3% PEI for at least one hour and washed twice with binding buffer consisting of 20 mM Tris, 2 mM EDTA, pH 7.5, 1 mg/ml BSA, and 1 mg/ml bacitracin. […] The plates were dried, scintillant was added to each well, and cpm per well determined using a Wallac Microbeta counter.

glucagon receptor = biological target: T2, glucagon receptor (Rattus norvegicus, UniProt P30082); experiment: Competitive binding of peptide to the glucagon receptor in rat liver plasma membranes (125I glucagon)
T2 construct: glucagon receptor present in the plasma membranes isolated from rat liver; from tissue; host or cells: rat liver plasma membranes
Experimental: The wet weight of the livers was determined and the tissue minced in 5 volumes of ice cold TES buffer and a slurry prepared using a polytron. All buffers and spins were kept at 4° C. The slurry was further homogenized using three strokes of a handheld dounce homogenizer. The homogenate was passed through several layers of cheesecloth and spun at 25,000×g for 10 minutes. Pellets were homogenized in 22.1 ml TES buffer using 10 strokes of a handheld dounce homogenizer. Twenty-seven point nine milliliters of 2.4 M sucrose in TE was added and mixed well. The homogenate was distributed among several tubes, and each tube was overlaid with 7 ml of TES buffer. The tubes were spun at 120,000×g for 60 minutes. The plasma membranes were removed from the interface that formed during the spin, diluted in TES and concentrated using a 15 minute spin at 200,000×g. The resulting pellet was again homogenized in 9.8 ml TES buffer, combined with 10.3 ml 2.4M sucrose, overlaid with 7 ml TES, and centrifuged at 180,000×g for 30 min. […] The final pellet was resuspended in TES. Plasma membranes were stored at −80° C. until ready for use.
as §1, with “rat liver” for “RINm5F cell”, “0.1%” for “0.3%”

T2 sequence (P30082 27-485): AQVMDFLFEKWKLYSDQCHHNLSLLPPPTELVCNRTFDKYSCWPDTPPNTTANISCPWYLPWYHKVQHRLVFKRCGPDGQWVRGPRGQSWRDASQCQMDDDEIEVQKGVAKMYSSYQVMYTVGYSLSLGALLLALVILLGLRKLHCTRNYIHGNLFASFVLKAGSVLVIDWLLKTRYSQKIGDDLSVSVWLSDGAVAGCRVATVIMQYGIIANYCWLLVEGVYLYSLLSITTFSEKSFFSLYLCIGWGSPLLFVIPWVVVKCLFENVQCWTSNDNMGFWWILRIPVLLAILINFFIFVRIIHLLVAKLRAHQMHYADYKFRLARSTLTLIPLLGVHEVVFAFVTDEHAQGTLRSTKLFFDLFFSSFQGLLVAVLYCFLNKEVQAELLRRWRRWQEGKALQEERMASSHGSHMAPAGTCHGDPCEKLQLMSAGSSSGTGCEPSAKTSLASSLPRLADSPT

| Compound | GLP1 Relative Potency (GLP-1 receptor [1]) [%] | % GLP1 max (GLP-1 receptor [1]; maximal cAMP activity relative to native GLP-1 (7-36), RINm5F cells) [%] | In vivo Decrease IpGTT AUC [2] [%] | pIC50 (GLP-1 receptor [3]) | pIC50 (glucagon receptor) | Emax (GLP-1 receptor [1]) [%] |
| --- | --- | --- | --- | --- | --- | --- |
| HSQGTFTSDYAKYLDARRAKEFIAWLVKGRC(22kD) (HSQGTFTSDYAKYLDARRAKEFIAWLVKGRC(PEG 22kD); listed as Homo sapiens) [G277, 22kD PEG linked to the cysteine residue] | 1.8 | 93.7 | 46 | – | – | – |
| HSQGTFTSDYARYLDARRAKEFIAWLVRGRG [G82] | 29.9 | – | – | 8.09 | 7.47 | 97.1 |
| CC(C)C[C@H](NC(=O)[C@H](Cc1ccc(O)cc1)NC(=O)[C@H](CCCCN)NC(=O)[C@H](CO)NC(=O)[C@H](Cc1ccc(O)cc1)NC(=O)[C@H](CC(=O)O)NC(=O)[C@H](CO)NC(=O)[C@@H](NC(=O)[C@H](Cc1ccccc1)NC(=O)[C@@H](NC(=O)CNC(=O)[C@H](CCC(N)=O)NC(=O)[C@H](CO)NC(=O)[C@@H](N)Cc1c[nH]cn1)[C@@H](C)O)[C@@H](C)O)C(=O)N[C@@H](CC(=O)O)C(=O)N[C@@H](CO)C(=O)N[C@@H](CCCNC(=N)N)C(=O)N[C@@H](CCCNC(=N)N)C(=O)N[C@@H](C)C(=O)N[C@@H](CCC(N)=O)C(=O)N[C@@H](CC(=O)O)C(=O)N[C@@H](Cc1ccccc1)C(=O)N[C@H](C(=O)N[C@@H](CCC(N)=O)C(=O)N[C@@H](Cc1c[nH]c2ccccc12)C(=O)N[C@@H](CC(C)C)C(=O)N[C@H](C(=O)N[C@@H](CCCCN)C(=O)NCC(=O)N[C@@H](CCCNC(=N)N)C(N)=O)C(C)C)C(C)C [G1] | 6.9 | – | – | 8.22 | 8.18 | 112 |
| HSQGTFTSDYSKYLEGQAAKEFIAWLVKGR-NH2 [G5] | 69.9 | – | – | 9.30 | 6.61 | 109 |
| HSQGTFTSDYAKYLDAKKAKEFIAWLVKGRG [G58] | 76.1 | – | – | 8.16 | 6.79 | 99 |
| HSQGTFTSDYARYLDARRAREFIAWLVRGRGK [G85] | 64.5 | – | – | 8.82 | 7.79 | 95.8 |
| HSQGTFTSDYARYLDARRAREFIAWLVKGRG [G84] | 61.8 | – | – | 8.85 | 7.93 | 114 |
| HSQGTFTSDYARYLDARRAREFIKWLVRGRG [G83] | 29.9 | – | – | 8.49 | 7.54 | 89.4 |
| HSQGTFTSDYARYLDARRAREFIKWLVRGRC [G185] | 13.0 | – | – | 8.35 | 7.32 | 104 |
| HSQGTFTSDYAKYLDARRAKEFIAWLVKGCG [G76] | 7.7 | – | – | 7.99 | 7.23 | 85 |
| HSQGTFTSDYAKYLDAAKAKEFIAWLVKGRG [G60] | 22.3 | – | – | 7.86 | 6.17 | 95.7 |
